The values below come from article PMC7560342, “In Vitro and In Vivo Evaluation of the Toxic Effects of Dodecylguanidine Hydrochloride” (Toxics, 2020).

Entries after “also recorded” stand apart in the source; their conditions may differ.

In data set [1] the test system is A549 cells. Nature of the data set: cells. Conditions: 24 h exposure, WST assay. The data set is classed as cell-based, Human. The protocol: Human adenocarcinomic alveolar epithelial (A549) cells were obtained from the Korea Cell Line Bank (Seoul, Korea). Cells were grown in RPMI 1640 medium (Thermo Fisher Scientific, Waltham, MA, USA), containing 10% heat-inactivated fetal bovine serum (Thermo Fisher Scientific, Waltham, MA, USA) and 1% penicillin-streptomycin (Thermo Fisher Scientific, Waltham, MA, USA) under standard cell culture conditions (37 °C, 5% CO2, and 90% humidity).
A549 cells (1 × 10^4 cells) were incubated in 96-well plates overnight, and various concentrations (1, 10, 100, 1000, and 5000 μg/mL) of the eight selected chemicals were added to the cell culture medium. After 24 h of incubation, cell morphology was observed by optical microscopy, and cell viability was evaluated using EZ-Cytox kit (DoGenBio, Seoul, Korea) by quantifying purple formazan crystals. The membrane integrity was examined using an EZ-lactate dehydrogenase (LDH) kit (DoGenBio, Seoul, Korea) to measure the LDH level released from the cytosol into the culture medium. Absorbance was measured using a microplate reader (Tecan, Salzburg, Austria) at a wavelength of 450 nm.

In data set [2] the test system is A549 cells. In words: Colony formation (clonogenic) assay. The data set is classed as cell-based, Human. To be noted: 10 days. The protocol: A clonogenic assay was performed by modifying the method of Franken et al.. Briefly, the cells were incubated overnight in six-well plates, at a density of 200 cells per well. DGH (0.00313, 0.00625, 0.0125, 0.025, 0.05, 0.1, and 0.2 μg/mL) and CGP (0.313, 0.625, 1.25, 2.5, 5, 10, and 20 μg/mL) were incubated with the cells for ten days. After incubation, the medium was removed, the cells were washed with phosphate-buffered saline (PBS), fixed with methanol for 10 min on ice, and stained with crystal violet (0.5% crystal violet in 20% methanol). The number of colonies was quantified using light microscopy (Olympus Co., Tokyo, Japan).

The test system of another data set is Sprague-Dawley rats. In words: Acute inhalation study (4 h aerosol exposure). The data set is classed as in vivo, rat. As for the experimental part:
Specific-pathogen-free (SPF) male and female Sprague-Dawley (six-week-old) rats were purchased from Orient Bio Inc. (Sungnam, Korea). The temperature and relative humidity of the animal maintenance room was set to 22 ± 3 °C and 30 to 70%, respectively, with a 12:12 h light/dark cycle. Diet (LabDiet 5053, Orient Bio Inc., Sungnam, Korea) and water were supplied ad libitum. Following an acclimatization period of one week, the rats were randomly divided into four groups (five males and five females per group) for the acute inhalation study. All animal experiments were approved by the Animal Care and Use Committee of the National Institute of Environmental Research, Republic of Korea (identification code: NIER-2019-01-01-011; date of approval: 15 May 2019). The left lung of the rats was used for histopathological analysis and the right lung was used for bronchoalveolar lavage fluid (BALF) analysis, including lung cell damage and pulmonary inflammation.
The inhalation aerosols of the DGH solutions were generated using an atomizer with a clean air flow of 250 L/min. […] In the acute toxicity test, all the rats in each group were sacrificed immediately after exposure. Temperature, humidity, air flow, and air pressure were monitored during the exposure using a Model VT3-X15 environmental controller (Sibata, Saitama, Japan). The concentration of DGH was analyzed by sampling the chamber air using a SIP-32L (Sibata, Saitama, Japan) and measuring the weight of the membranes (T60A20, Φ55). The mass median aerodynamic diameter (MMAD) and geometric standard deviation (GSD) of DGH in the exposure chamber were measured using an Andersen cascade impactor (AN-200, Sibata, Saitama, Japan).
Hematology and serum biochemistry of ten rats in each group were analyzed, as described in previous studies. Briefly, blood samples of the animals were drawn from the ventral aorta using a syringe, under anesthesia. The blood samples were collected into CBC bottles containing ethylenediaminetetraacetic acid (EDTA) (K2 EDTA, BD vacutainer) and analyzed within 15 min, using an automatic hematology LC-662G, Kyoto, Japan. The following parameters were determined: white blood cell count, red blood cell count, hemoglobin, hematocrit, mean corpuscular volume, mean corpuscular hemoglobin, mean corpuscular hemoglobin concentration, red blood cell volume distribution width, platelets, mean platelet volume, […], and platelet distribution width. Blood samples were drawn from the ventral aorta using a syringe and collected in a serum vacutainer. The sera were collected by centrifugation at 2000 rpm for 10 min within 2 h after collection and stored at −80 °C in a freezer, prior to analysis. The following serum biochemistry parameters were determined using an automatic serum analyzer (Drichem4000, Fuji Photo Film, Tokyo, Japan): alkaline phosphatase, lactate dehydrogenase (LDH), glucose, total cholesterol, glutamic oxaloacetate transaminase, glutamic pyruvate transaminase, urea nitrogen in blood, calcium, inorganic phosphorus, gamma glutamyl transferase, albumin, total protein, creatinine, total bilirubin, sodium, potassium, and chlorine.

In the case of `CCCCCCCCCCCCN=C(N)N.Cl` [DGH, Dodecylguanidine hydrochloride], the “IC50 (half inhibitory concentration by cell viability assay)” value in the data set on A549 cells [1] was 0.39 µg/mL. In addition, the “Total number of colonies” value with A549 cells [2] (DGH 0.00313–0.2 μg/mL, CGP 0.313–20 μg/mL) is reported as “dramatic decrease”. Also, in the data set on A549 cells [2] (DGH 0.025 μg/mL), the “Reduction in colony formation compared to the control” value is listed as “approximately 50%”. Besides, the Spleen weight entry in the data set with Sprague-Dawley rats (male rats, exposed groups, 4 h) is recorded as “significantly decreased; also recorded: decreased significantly”. Besides, in the data set on Sprague-Dawley rats (rats, 8.6–68 mg/m^3, 4 h), the “Body weight vs control” value is “no significant changes”, the Deaths entry is recorded as “no deaths occurred; also recorded: no death”, the Hematology vs control entry is recorded as “no significant changes” and the “Serum biochemistry vs control” value was “no significant changes”. Also, the “LC50 (inhalation)” value in the data set with Sprague-Dawley rats (rats, exposure for 4 h, estimated) is given as over 68 mg/m^3.
